Measured values from article PMC12508156, “Non-canonical dihydrolipoyl transacetylase promotes chemotherapy resistance via mitochondrial tetrahydrofolate signaling” (Nature Communications, 2025).
Values joined by “and” are separate entries in the source; they are usually repeats but may differ in a detail not shown here. Identical values can stand only once.

Columns and labels:
[1] = system: KB-3-1cisR xenograft tumors; assay: IHC of KB-3-1cisR xenograft tumors (Ac-K44 MTHFD2, MT-CO2, DLAT, Ki-67); format: in vivo, athymic nu/nu mice; parameters: key: IHC intensity score 0 to 3+; conditions: KB-3-1cisR xenograft tumors (Figure 8J)
Text: Formalin-fixed and paraffin-embedded tumor tissue specimens from HNSCC and NSCLC patients were obtained from the […] Cancer Tissue and Pathology Shared Resources. The Institutional Review Board (IRB) of Emory University approved using human specimens (IRB00003208 - HNSCC, IRB00098377 - NSCLC). Clinical samples were collected with informed consent according to the Health Insurance Portability and Accountability Act. Patients' clinical information was obtained through the […] Technology Applications Shared Resource. Tumors from HNSCC or NSCLC patients who received chemotherapy-containing regimens were used. Immunohistochemistry (IHC) staining of DLAT, acetyl-[…] MTHFD2, MT-CO2, and Ki-67 was performed based on the established protocol. Antigen retrieval was conducted in Tris-EDTA (pH 9.0) for acetyl-[…] MTHFD2 and MT-CO2 and sodium citrate (pH 6.0) for the remaining antigens. […] Assessment of positive DLAT, MT-CO2, and acetyl-[…] MTHFD2 staining intensity within tumor cells was performed using a scoring system ranging from 0 to 3+ based on IHC signal intensity. Mice were subcutaneously injected into the flank with 1 × 10^6 KB-3-1^cisR cells with or without DLAT knockdown. […] Tumors were collected at the experimental endpoint, and tumor proliferation was assessed using Ki-67 IHC staining. The localization, penetration, and efficacy of DMp39 were monitored by assessing the acetyl-[…] levels in tumors and fluorescence imaging analysis using an IVIS imaging system. Drug-induced organ toxicities, including splenomegaly, liver damage, and kidney injury, were monitored by assessing spleen index, alanine transaminase activity, and cystatin C levels in plasma.

KB-3-1cisR cells = assay: Cell viability (CellTiter-Glo); format: cell-based, human; parameters: unit not given here; conditions: 48 h, n=1-3: biological replicates
Description: (§1) Cell viability was determined using the CellTiter-Glo Luminescent Cell Viability Assay. […] Subsequently, the cells were cultured in complete medium for an additional 10 days, and the resulting colonies were visualized by staining with crystal violet and quantified using ImageJ software. For cell cycle analysis, cells fixed with 70% ethanol were stained with RNase A (100 µg/mL) and propidium iodide (50 μg/ml) for 30 min at 37 °C, and DNA content distribution was measured using flow cytometry (BD Symphony A3) and analyzed with FlowJo software (v10.9). Apoptotic cell death was assessed via FITC-conjugated annexin V and propidium iodide staining.

H1299 cells = assay: Cell viability (CellTiter-Glo); format: cell-based, human; parameters: unit not given here; conditions: 48 h, n=1-3: biological replicates
Description: as §1

PCI-37B cells = assay: Cell viability (CellTiter-Glo); format: cell-based, human; parameters: unit not given here; conditions: 48 h, n=1-3: biological replicates
Description: as §1

A549cisR cells = assay: Cell viability (CellTiter-Glo); format: cell-based, human; parameters: unit not given here; conditions: 48 h, n=1-3: biological replicates
Description: as §1

cellular ROS = assay: Cellular ROS level (CM-H2DCFDA staining); format: cell-based, human
Description: Cellular metabolic states were examined through various assays. To gauge the levels of total intracellular or mitochondrial reactive oxygen species (ROS), cells were stained with CM-H2DCFDA or mitoSOX, respectively. Intracellular H2O2, NADPH, acetyl-CoA, and GSH/GSSG ratios were quantified using commercial assay kits as listed in the Reagents. Intracellular ATP levels were determined utilizing the ATP bioluminescent somatic cell assay and normalized to the total protein concentrations. The de novo synthesized RNA and proteins were assessed in cancer cells using commercial assays following the manufacturer’s protocols. In brief, O-propargyl-puromycin or uridine analog, 5-EU, was applied to stop translation or modify RNA. Polypeptides or modified RNA were measured using fluorescent azide with Ex/Em at 494/521 nm. PDC activity was determined by measuring the reduction of NAD+ to NADH during the conversion of pyruvate into acetyl-CoA.

GSH/GSSG = GSH/GSSG ratio (GSH/GSSG-Glo); format: cell-based, human
[2] = A549cisR, CTL, sheet Figure 5G, replicate n=1
[3] = A549cisR, CTL, sheet Figure 5G, replicate n=2
[4] = A549cisR, CTL, sheet Figure 5G, replicate n=3
[5] = KB-3-1cisR, CTL, sheet Figure 5G, replicate n=1
[6] = KB-3-1cisR, CTL, sheet Figure 5G, replicate n=2
[7] = KB-3-1cisR, CTL, sheet Figure 5G, replicate n=3
[8] = KB-3-1cisR, shDLAT+Flag-MTHFD2 (K44Q), sheet Figure 5G, replicate n=1
[9] = KB-3-1cisR, shDLAT+Flag-MTHFD2 (K44Q), sheet Figure 5G, replicate n=2

N.N.[Cl][Pt][Cl] [cisplatin]
Ac-K44 (IHC score) ([1]; n=1): 2 | DLAT (IHC score) ([1]; n=1): 2 | MT-CO2 (IHC score) ([1]; n=1): 3 | Ac-K44 (IHC score) ([1]; n=2): 3 | DLAT (IHC score) ([1]; n=2): 3 | MT-CO2 (IHC score) ([1]; n=2): 3 | Ac-K44 (IHC score) ([1]; n=3): 2 | DLAT (IHC score) ([1]; n=3): 2 | MT-CO2 (IHC score) ([1]; n=3): 3 | Ac-K44 (IHC score) ([1]; n=4): 2 | DLAT (IHC score) ([1]; n=4): 3 | MT-CO2 (IHC score) ([1]; n=4): 3 | Ac-K44 (IHC score) ([1]; n=5): 2 | DLAT (IHC score) ([1]; n=5): 3 | MT-CO2 (IHC score) ([1]; n=5): 1 | Ac-K44 (IHC score) ([1]; n=6): 2 | DLAT (IHC score) ([1]; n=6): 2 | MT-CO2 (IHC score) ([1]; n=6): 3 | cisplatin IC50 (KB-3-1cisR cells; DLAT #1 shRNA knockdown): 5.222 and 4.723 and 5.403 | cisplatin IC50 (KB-3-1cisR cells; DLAT #2 shRNA knockdown): 8.292 and 8.491 and 9.402 | cisplatin IC50 (KB-3-1cisR cells; pLKO.1 control): 35.64 and 37.47 and 39.03 | cisplatin IC50 (H1299 cells; H1299, DLAT #1 shRNA knockdown): 4.334 and 4.088 and 4.359 | cisplatin IC50 (H1299 cells; H1299, DLAT #2 shRNA knockdown): 9.212 and 9.08 and 8.246 | cisplatin IC50 (H1299 cells; H1299, pLKO.1 control): 13.89 and 13.96 and 12.36 | cisplatin IC50 (PCI-37B cells; DLAT #1 shRNA knockdown): 0.6706 and 0.655 and 0.6977 | cisplatin IC50 (PCI-37B cells; DLAT #2 shRNA knockdown): 1.089 and 1.15 and 1.31 | cisplatin IC50 (PCI-37B cells; pLKO.1 control): 2.128 and 2.267 and 2.42 | cisplatin IC50 (A549cisR cells; DLAT #1 shRNA knockdown): 3.049 and 3.093 and 3.477 | cisplatin IC50 (A549cisR cells; DLAT #2 shRNA knockdown): 3.68 and 3.342 and 3.385 | cisplatin IC50 (A549cisR cells; pLKO.1 control): 10.93 and 10.63 and 11.6 | ROS level (cellular ROS; A549cisR cells, pLKO.1, n=1): 0.9837 | ROS level (cellular ROS; A549cisR cells, pLKO.1, n=2): 1.0031 | ROS level (cellular ROS; A549cisR cells, pLKO.1, n=3): 1.0132 | ROS level (cellular ROS; [2]): 1.052 | ROS level (cellular ROS; [3]): 0.9938 | ROS level (cellular ROS; [4]): 0.9539 | ROS level (cellular ROS; KB-3-1cisR cells, pLKO.1, n=1): 1.037 | ROS level (cellular ROS; KB-3-1cisR cells, pLKO.1, n=2): 0.9651 | ROS level (cellular ROS; KB-3-1cisR cells, pLKO.1, n=3): 0.9984 | ROS level (cellular ROS; KB-3-1cisR cells, shDLAT, n=1): 2.065 | ROS level (cellular ROS; KB-3-1cisR cells, shDLAT, n=2): 2.047 | ROS level (cellular ROS; [5]): 0.9879 | ROS level (cellular ROS; [6]): 1.001 | ROS level (cellular ROS; [7]): 1.011 | ROS level (cellular ROS; [8]): 1.351 | ROS level (cellular ROS; [9]): 1.32 | GSH/GSSG (GSH/GSSG; A549cisR cells, pLKO.1, n=1): 18.3651 | GSH/GSSG (GSH/GSSG; A549cisR cells, pLKO.1, n=3): 19.3614 | GSH/GSSG (GSH/GSSG; A549cisR cells, pLKO.1, n=4): 18.0395 | GSH/GSSG (GSH/GSSG; A549cisR cells, shDLAT, n=1): 8.402 | GSH/GSSG (GSH/GSSG; A549cisR cells, shDLAT, n=2): 8.901 | GSH/GSSG (GSH/GSSG; A549cisR cells, shDLAT, n=4): 10.9995 | GSH/GSSG (GSH/GSSG; [2]): 25.1517 | GSH/GSSG (GSH/GSSG; [3]): 26.0996 | GSH/GSSG (GSH/GSSG; [4]): 23.5884 | GSH/GSSG (GSH/GSSG; A549cisR, shDLAT+Flag-MTHFD2 (K44Q), sheet Figure 5G, replicate n=1): 31.9457 | GSH/GSSG (GSH/GSSG; A549cisR, shDLAT+Flag-MTHFD2 (K44Q), sheet Figure 5G, replicate n=2): 29.1783 | GSH/GSSG (GSH/GSSG; A549cisR, shDLAT+Flag-MTHFD2 (K44Q), sheet Figure 5G, replicate n=3): 30.4077 | GSH/GSSG (GSH/GSSG; A549cisR, shDLAT+Flag-MTHFD2 (K44R), sheet Figure 5G, replicate n=1): 8.894 | GSH/GSSG (GSH/GSSG; A549cisR, shDLAT+Flag-MTHFD2 (K44R), sheet Figure 5G, replicate n=2): 10.2513 | GSH/GSSG (GSH/GSSG; A549cisR, shDLAT+Flag-MTHFD2 (K44R), sheet Figure 5G, replicate n=3): 9.633 | GSH/GSSG (GSH/GSSG; A549cisR, shDLAT, sheet Figure 5G, replicate n=1): 8.501 | GSH/GSSG (GSH/GSSG; A549cisR, shDLAT, sheet Figure 5G, replicate n=2): 9.861 | GSH/GSSG (GSH/GSSG; A549cisR, shDLAT, sheet Figure 5G, replicate n=3): 10.404 | GSH/GSSG (GSH/GSSG; KB-3-1cisR cells, pLKO.1, n=1): 14.1658 | GSH/GSSG (GSH/GSSG; KB-3-1cisR cells, pLKO.1, n=2): 13.5059 | GSH/GSSG (GSH/GSSG; KB-3-1cisR cells, pLKO.1, n=3): 14.1711 | GSH/GSSG (GSH/GSSG; KB-3-1cisR cells, pLKO.1, n=4): 12.6758 | GSH/GSSG (GSH/GSSG; KB-3-1cisR cells, shDLAT, n=3): 6.177 | GSH/GSSG (GSH/GSSG; KB-3-1cisR cells, shDLAT, n=4): 6.252 | GSH/GSSG (GSH/GSSG; [5]): 15.3805 | GSH/GSSG (GSH/GSSG; [6]): 14.4145 | GSH/GSSG (GSH/GSSG; [7]): 16.7699 | GSH/GSSG (GSH/GSSG; [8]): 25.3381 | GSH/GSSG (GSH/GSSG; [9]): 26.6695 | GSH/GSSG (GSH/GSSG; KB-3-1cisR, shDLAT+Flag-MTHFD2 (K44Q), sheet Figure 5G, replicate n=3): 26.7501 | GSH/GSSG (GSH/GSSG; KB-3-1cisR, shDLAT+Flag-MTHFD2 (K44R), sheet Figure 5G, replicate n=1): 6.376 | GSH/GSSG (GSH/GSSG; KB-3-1cisR, shDLAT+Flag-MTHFD2 (K44R), sheet Figure 5G, replicate n=2): 6.273 | GSH/GSSG (GSH/GSSG; KB-3-1cisR, shDLAT+Flag-MTHFD2 (K44R), sheet Figure 5G, replicate n=3): 6.832 | GSH/GSSG (GSH/GSSG; KB-3-1cisR, shDLAT, sheet Figure 5G, replicate n=1): 7.027 | GSH/GSSG (GSH/GSSG; KB-3-1cisR, shDLAT, sheet Figure 5G, replicate n=2): 6.914 | GSH/GSSG (GSH/GSSG; KB-3-1cisR, shDLAT, sheet Figure 5G, replicate n=3): 7.456
